Some results are limits rather than exact numbers.

In assay [1] the test system is Septoria tritici (SEPTTR). In words: Leaf Blotch of Wheat, whole plant 24 Hour Protectant (T6). The note with it: Zymoseptoria tritici; wheat (cultivar Monon), sprayed at 100 ppm, inoculated after 24 hours; read-out: T6 SEPTTR in vivo 1 Day Protectant, control of fungal infection.
The test system of assay [2] is Rhizoctonia solani (RHIZSO). Kind of assay: microbe, parasite or virus in culture. In kind it is cell-based. The note with it: read-out: T10 RHIZSO in vitro Growth Inhibition.
In assay [3] the test system is Stagonospora nodorum (Leptosphaeria nodorum, LEPTNO). Kind of assay: microbe, parasite or virus in culture. In kind it is cell-based. The note with it: Parastagonospora nodorum, read-out: T7 LEPTNO in vitro Growth Inhibition.
For assay [4], the system named is Magnaporthe grisea (Pyricularia oryzae, PYRIOR). Kind of assay: microbe, parasite or virus in culture. In kind it is cell-based. Particulars: read-out: T9 PYRIOR in vitro Growth Inhibition.
Assay [5] has as its system Leptosphaeria nodorum (LEPTNO). Kind of assay: Glume Blotch of Wheat, whole plant 24 Hour Protectant (T2). Particulars: Parastagonospora nodorum; wheat (cultivar Yuma), sprayed at 100 ppm, inoculated after 24 hours; read-out: T2 LEPTNO in vivo 1 Day Protectant, control of fungal infection.
The test system of assay [6] is Phytophthora infestans (PHYTIN). Kind of assay: microbe, parasite or virus in culture. In kind it is cell-based. The note with it: in Secale cereale, read-out: T8 PHYTIN in vitro Growth Inhibition.
Assay [7] has the same test system. Kind of assay: whole plant or invertebrate. Particulars: in Solanum lycopersicum, 24 h, read-out: T3 PHYTIN in vivo 1 Day Protectant, control of fungal infection.
The subject of assay [8] is Mycosphaerella graminicola (Septoria tritici, SEPTTR). Kind of assay: microbe, parasite or virus in culture. The assay is classed as cell-based. Particulars: Zymoseptoria tritici, read-out: T11 SEPTTR in vitro Growth Inhibition.
Assay [9] relates to Puccinia recondita (PUCCRT). In words: Brown Rust of Wheat, whole plant 24 Hour Protectant (T5). Particulars: wheat (cultivar Yuma), sprayed at 100 ppm, inoculated after 24 hours, read-out: T5 PUCCRT in vivo 1 Day Protectant, control of fungal infection.
For assay [10], the system named is Erysiphe graminis (ERYSGT). Kind of assay: Powdery Mildew of Wheat, whole plant 24 Hour Protectant (T1). The note with it: Blumeria graminis, in Triticum aestivum, read-out: T1 ERYSGT in vivo 1 Day Protectant, control of fungal infection.
The subject of a further assay is Ustilago maydis (USTIMA). In words: microbe, parasite or virus in culture. In kind it is cell-based. Particulars: Mycosarcoma maydis, read-out: T12 USTIMA in vitro Growth Inhibition.

On to `COc1ccnc(C(=O)N[C@H]2COC(=O)[C@H](Cc3ccccc3)[C@@H](OC(=O)C(C)C)[C@H](C)OC2=O)c1OCOC(=O)COc1ccccc1` [Compound 42], for which the pest or weed control at 100 ppm is less than 25% in assay [1]; 75 to 100% in assay [5]; less than 25% in [7]; 75 to 100% in assay [9]; less than 25% in [10]. For the same compound, the inhibition at 25 ppm was less than 80% in assay [2]; more than 80% in [3]; more than 80% in assay [4]; less than 80% in assay [6]; more than 80% in assay [8]; less than 80% in the assay on Ustilago maydis (USTIMA).
As to `COc1ccnc(C(=O)N[C@H]2COC(=O)[C@H](Cc3ccccc3)[C@@H](OC(=O)C(C)C)[C@H](C)OC2=O)c1OC1OC(=O)c2ccccc21` (some centres unmarked) [Compound 43], the pest or weed control at 100 ppm in assay [1] was 75 to 100%; in assay [5], 75 to 100%; in [7], less than 25%; in assay [9] it was 75 to 100%; in assay [10], 25 to 74%. The inhibition at 25 ppm in [2] is less than 80%; in assay [3], more than 80%; in assay [4] it was less than 80%; in assay [6], less than 80%; in assay [8], more than 80%; in the assay on Ustilago maydis (USTIMA) it was less than 80%.
On to `CCOC(=O)OCOc1c(OC)ccnc1C(=O)N[C@H]1COC(=O)[C@H](Cc2ccccc2)[C@@H](OC(=O)C(C)C)[C@H](C)OC1=O` [Compound 45], for which the pest or weed control at 100 ppm in assay [1] lay within 75 to 100%; in [5], 75 to 100%; in assay [7] it was 25 to 74%; in assay [9] it was 75 to 100%; in [10] it was 25 to 74%. Also, the inhibition at 25 ppm is less than 80% in assay [2]; more than 80% in assay [3]; more than 80% in [4]; less than 80% in [6]; less than 80% in assay [8]; less than 80% in the assay with Ustilago maydis (USTIMA).
With `CCCOC(=O)OCOc1c(OC)ccnc1C(=O)N[C@H]1COC(=O)[C@H](Cc2ccccc2)[C@@H](OC(=O)C(C)C)[C@H](C)OC1=O` [Compound 46], the pest or weed control at 100 ppm in [1] was 75 to 100%; in [5], 75 to 100%; in [7], less than 25%; in [9], 75 to 100%; in assay [10] it was 25 to 74%. Further, the inhibition at 25 ppm was less than 80% in assay [2]; more than 80% in [3]; more than 80% in assay [4]; less than 80% in assay [6]; less than 80% in assay [8]; less than 80% in the assay with Ustilago maydis (USTIMA).
On to `COCCOC(=O)OCOc1c(OC)ccnc1C(=O)N[C@H]1COC(=O)[C@H](Cc2ccccc2)[C@@H](OC(=O)C(C)C)[C@H](C)OC1=O` [Compound 48], for which the pest or weed control at 100 ppm in assay [1] is 75 to 100%; in assay [5] it was 75 to 100%; in assay [7], less than 25%; in assay [9], 75 to 100%; in assay [10], 75 to 100%. For the same compound, the inhibition at 25 ppm is less than 80% in [2]; more than 80% in [3]; less than 80% in assay [4]; less than 80% in assay [6]; less than 80% in assay [8]; more than 80% in the assay with Ustilago maydis (USTIMA).
In the case of `COCCC(=O)OCOc1c(OC)ccnc1C(=O)N[C@H]1COC(=O)[C@H](Cc2ccccc2)[C@@H](OCC(C)C)[C@H](C)OC1=O` [Compound 54], the pest or weed control at 100 ppm in assay [1] is 75 to 100%; in assay [5], 75 to 100%; in assay [7], less than 25%; in assay [9], 75 to 100%; in [10] it was 75 to 100%. Besides, the inhibition at 25 ppm in assay [2] is less than 80%; in [3], more than 80%; in assay [4], more than 80%; in [6] it was less than 80%; in [8], more than 80%; with Ustilago maydis (USTIMA), more than 80%.
With `CCCO[C@H]1[C@H](C)OC(=O)[C@@H](NC(=O)c2nccc(OC)c2OCOC(=O)CCOC)COC(=O)[C@@H]1Cc1ccccc1` [Compound 55], the pest or weed control at 100 ppm in assay [1] was 75 to 100%; in [5], 75 to 100%; in assay [7], less than 25%; in assay [9], 75 to 100%; in assay [10], 75 to 100%. For the same compound, the inhibition at 25 ppm in assay [2] was less than 80%; in assay [3], more than 80%; in [4], more than 80%; in assay [6], less than 80%; in [8], more than 80%; with Ustilago maydis (USTIMA), less than 80%.
As for `COc1ccnc(C(=O)N[C@H]2COC(=O)[C@H](Cc3ccccc3)[C@@H](OCC(C)C)[C@H](C)OC2=O)c1OCOC(=O)C1CC1` [Compound 56], the pest or weed control at 100 ppm in assay [1] is 75 to 100%; in assay [5], 75 to 100%; in assay [7], less than 25%; in [9], 75 to 100%; in assay [10], 75 to 100%. For the same compound, the inhibition at 25 ppm in [2] was less than 80%; in assay [3], more than 80%; in assay [4], more than 80%; in assay [6] it was less than 80%; in [8] it was more than 80%; in the assay on Ustilago maydis (USTIMA) it was less than 80%.
In the case of `COCCOC(=O)OCOc1c(OC)ccnc1C(=O)N[C@H]1COC(=O)[C@H](Cc2ccccc2)[C@@H](OCC(C)C)[C@H](C)OC1=O` [Compound 57], the pest or weed control at 100 ppm in [1] is 75 to 100%; in [5], 75 to 100%; in assay [7] it was less than 25%; in assay [9] it was 75 to 100%; in assay [10] it was 75 to 100%. For the same compound, the inhibition at 25 ppm was less than 80% in assay [2]; more than 80% in [3]; more than 80% in assay [4]; less than 80% in [6]; more than 80% in [8]; more than 80% in the assay with Ustilago maydis (USTIMA).
For `COCC(=O)OCOc1c(OC)ccnc1C(=O)N[C@H]1COC(=O)[C@H](Cc2ccccc2)[C@@H](OCC(C)C)[C@H](C)OC1=O` [Compound 58], the pest or weed control at 100 ppm in assay [1] is 75 to 100%; in assay [5] it was 75 to 100%; in assay [7], less than 25%; in assay [9], 75 to 100%; in assay [10] it was 75 to 100%. Also, the inhibition at 25 ppm is less than 80% in assay [2]; more than 80% in assay [3]; more than 80% in assay [4]; more than 80% in assay [6]; more than 80% in assay [8]; more than 80% in the assay with Ustilago maydis (USTIMA).
Consider `CCOCC(=O)OCOc1c(OC)ccnc1C(=O)N[C@H]1COC(=O)[C@H](Cc2ccccc2)[C@@H](OCC(C)C)[C@H](C)OC1=O` [Compound 59], for which the pest or weed control at 100 ppm in [1] was 75 to 100%; in assay [5], 75 to 100%; in assay [7], less than 25%; in assay [9], 75 to 100%; in assay [10], 75 to 100%. The inhibition at 25 ppm in assay [2] was less than 80%; in assay [3] it was more than 80%; in assay [4], more than 80%; in assay [6], more than 80%; in assay [8], more than 80%; in the assay on Ustilago maydis (USTIMA) it was more than 80%.
With `CCCO[C@H]1[C@H](C)OC(=O)[C@@H](NC(=O)c2nccc(OC)c2OCOC(=O)COCC)COC(=O)[C@@H]1Cc1ccccc1` [Compound 60], the pest or weed control at 100 ppm in [1] is 75 to 100%; in [5], 75 to 100%; in [7], less than 25%; in [9], 75 to 100%; in assay [10] it was 75 to 100%. Further, the inhibition at 25 ppm in [2] was less than 80%; in assay [3], more than 80%; in assay [4], more than 80%; in [6], more than 80%; in [8], more than 80%; in the assay with Ustilago maydis (USTIMA) it was more than 80%.
As for `COc1ccnc(C(=O)N[C@H]2COC(=O)[C@H](Cc3ccccc3)[C@@H](OCC(C)C)[C@H](C)OC2=O)c1OCOC(=O)C1CCCC1` [Compound 61], the pest or weed control at 100 ppm in assay [1] is 75 to 100%; in [5], 75 to 100%; in assay [7], less than 25%; in [9], 75 to 100%; in assay [10] it was 75 to 100%. The inhibition at 25 ppm in assay [2] is less than 80%; in [3] it was more than 80%; in assay [4] it was more than 80%; in [6], less than 80%; in assay [8] it was more than 80%; with Ustilago maydis (USTIMA), more than 80%.

Source of the values: patent US6861390B2, “Derivatives of UK-2A” (priority 2001, dated 2005).
